According to patent publication US8178579B2, “Dioxanes and uses thereof” (President and Fellows of Harvard College, priority 2001, dated 2012):
Entries after “also recorded” stand apart in the source; their conditions may differ.

Experiments:
[1] = test system: zebrafish (Danio rerio) embryos; assay: phenotypic assay with 16-cell zebrafish embryos; format: in vivo; settings: 60 μM, 18 h (24 h in FIG. 22B) post-fertilization
Method: To determine the effect of these compounds on whole organism development, a phenotypic assay was performed using 16-cell zebrafish (Danio rerio) embryos (Stockwell et al. Chem. Biol. 1999, 6, 71-83) with 1300 compounds from the 1,3-dioxane library. […] The folded notochord phenotype has also been observed through genetic mutant screens^32 for the gul^m208 and lev^m531 mutations. The 1,3-diol (13) may target these gene products or other proteins involved in the same biological pathway. Dissection of the pathways involved in notochord development may be complemented by small molecule ligands for proteins in those pathways.

[2] = test system: microtubules in A549 cells; assay: microtubule stability to nocodazole, cold or calcium depolymerization and repolymerization; format: cell-based, human; settings: tubacin 2 μM, ITSA1 50 μM
Method: Detection of acetylated α-tubulin and acetylated histones by immunofluorescence was performed as described in Example 6 above. For determining microtubule stability, A549 cells were treated as indicated, fixed in glutaraldehyde, and stained for acetylated α-tubulin and total α-tubulin in antibody dilution buffer (ADB, Tris-buffered saline (TBS), 0.15 M NaCl, 0.02 M Tris-Cl, pH 7.4, with 2% bovine serum albumin and 0.1% Triton-X 100). For cold-depolymerization, cells were incubated at 4° C. or 37° C. for an additional 90 minutes before fixation. For calcium depolymerization, cells were incubated at 37° C. for 10 minutes in a microtubule-stabilizing buffer (0.2% NP-40, 5 mM MgCl2, 2 mM EGTA, 2 M glycerol, 100 mM PIPES, pH 6.8) with and without the addition of CaCl2 (2 mM) before glutaraldehyde fixation. For co-localization experiments, biotubacin (50 μM) treated A549 cells were fixed in 3.7% formaldehyde in TBS and processed as for detecting acetylated α-tubulin (See Example 6 above) with biotubacin detected using streptavidin-TR (1:500). HDAC6 was detected using a rabbit polyclonal antibody (1:250-1:750; C.M.G., unpublished data) under the conditions used to detect acetylated α-tubulin (See Example 6 above). Filamentous actin in HT-1080 cells was detected using TR-conjugated phalloidin (1 μg/mL), and depolymerized actin using FITC-conjugated deoxyribonuclease (10 μg/mL), following fixation in 3.7% formaldehyde in TBS. p58 (1:100) in NIH-3T3 cells was detected after fixation in 3.7% formaldehyde in TBS. Images for these experiments were collected on a Zeiss LSM510 confocal scanning laser microscope at the appropriate wavelengths using the accompanying software and processed with Adobe Photoshop. Deconvoluted serial images of TSA and DMSO treated A549 cells were obtained by taking sections (8μ) on a Zeiss Axioskop 2 microscope using an AxioCam camera and the accompanying software. Rat hippocampal neuronal cultures were fixed at room temperature for 15 min in phosphate-buffered saline (PBS) containing 4% paraformaldehyde. […]

[3] = test system: α-tubulin acetylation in the presence of ITSA1; settings: cited from earlier work
[4] = test system: α-tubulin deacetylation; assay: acetylated α-tubulin in cells (AcTubulin cytoblot, immunofluorescence, Western blot); format: cell-based, human; settings: A549 (also BS-C-1) cells, tubacin/JCWII114, niltubacin/JCWII153 2 μM, TSA 100 nM-4 μM, library ~2-5 μM, 18 h
Method: (§1) A549 cells were seeded at a density of 4,000 cells/50 μl in DMEM+ in white tissue culture-treated 384-well plates (Nalge Nunc) using a Multidrop 384 liquid dispenser (Labsystems). Library small molecules were pinned twice (100-150 nl/pin) from ˜1 mM stock solutions (DMSO) and incubated for 18 hours. For the ITSA1+AcTubulin assay, ITSA1 (50 μM) was added four hours after pin-transfer of library molecules. Media was aspirated with a 16-channel wand. For the acetylated α-tubulin cytoblot (AcTubulin), 40 μl/well of fixation solution (3.7% formaldehyde (1:10 from 37% stock) in Tris-buffered saline (TBS, 0.15 M NaCl, 0.02 M Tris-Cl, pH 7.4) was added and plates incubated for twenty minutes at room temperature. After aspiration, 30 μl 100% methanol (−20° C.) was added and incubated for five minutes at room temperature. After aspirating and washing three times with 90 μl of antibody dilution buffer (ADB, TBS/2% bovine serum albumin, 0.1% TritonX-100) the wells were blocked for twenty minutes in ADB. After aspirating, 20 μl/well of ADB containing anti-acetylated α-tubulin antibody (mouse; 1:1000) and anti-mouse IgG horseradish peroxidase (HRP)-conjugated antibody (1:750) was added and incubated overnight (4° C.). For the anti-acetyl lysine cytoblot (AcLysine), 40 μl/well of fixation solution (95% ethanol/5% acetic acid, −20° C.) was added and plates incubated for five minutes at room temperature. Wells were aspirated, washed, and blocked in ADB as for the AcTubulin protocol. After aspirating, 20 μl/well of ADB containing anti-acetylated lysine (rabbit; 1:375) and anti-rabbit IgG-HRP conjugated antibody (1:750) was added and incubated overnight (4° C.). For the anti-acetylated histone H3 (AcHistH3) and anti-acetylated histone H4 (AcHistH4) cytoblots, cells were fixed, washed, and blocked in ADB as for the AcLysine cytoblot. After aspirating, 20 μl/well of ADB containing anti-acetylated histone H3 antibody (rabbit, 1:500) or anti-acetylated histone H4 antibody (rabbit, 1:500) was added and incubated for two hours at room temperature. Wells were aspirated and washed twice with 80 μl of ADB. After aspirating, 20 μl/well of ADB containing anti-rabbit IgG-HRP conjugated antibody (1:1000) was added and incubated for two hours (room temperature). For the AcTubulin and AcLysine assays, plates were washed three times with TBS before adding 20 μl/well of enhanced chemiluminescent (ECL) mixture. For the AcHistH3 and AcHistH4 assays, plates were washed three times with 80 μl TBS with 1% Triton X-100 and once with 80 μl TBS before adding 20 μl/well of ECL mixture. Plates were read on an Analyst plate reader (LJL Biosystems) with an integration time of 0.1 seconds.
(§2) 1,3-dioxanes from single polystyrene macrobeads were prepared as 1-2 mM stock solutions in DMSO as described [Hubbert, C., Guardiola, A., Shao, R., Kawaguchi, Y., Ito, A., Nixon, A., Yoshida, M., Wang, X. F., and Yao, T. P. (2002). HDAC6 is a microtubule-associated deacetylase. Nature 417, 455-458]. Bead decoding and structure determination were as described [See for example, Hubbert, C., Guardiola, A., Shao, R., Kawaguchi, Y., Ito, A., Nixon, A., Yoshida, M., Wang, X. F., and Yao, T. P. (2002). HDAC6 is a microtubule-associated deacetylase. Nature 417, 455-458; and Piperno, G., LeDizet, M., and Chang, X. J. (1987). Microtubules containing acetylated alpha-tubulin in mammalian cells in culture. J. Cell Biol. 104, 289-302]. Small molecules (˜2-5 μM) of interest were retested using a sample from the plate of stock solutions by fluorescence microscopy and comparison to the effects of trichostatin (300 nM to 1 μM).
(§3) A549 cells were seeded at a density of 50,000/200 μl in DMEM+ on the surface of glass coverslips on top of Parafilm in a 10 cm dish and allowed to attach overnight. For detection of acetylated α-tubulin, cells were permeabilized and fixed with 100 mM K-PIPES, pH 6.8, 10 mM EGTA, 1 mM MgCl2, 0.2% triton X-100, 0.2% glutaraldehyde for fifteen minutes. […]

[5] = test system: histone deacetylation; assay: acetylated lysine / acetylated histone in cells (AcLysine cytoblot, immunofluorescence, Western blot); format: cell-based, human; settings: A549 (also BS-C-1) cells, tubacin, niltubacin 2 μM, histacin 20 μM, library ~2-5 μM, 18 h
Method: as §1, §2, §3

[6] = test system: α-tubulin acetylation in the presence of ITSA1; assay: ITSA1+AcTubulin assay: suppression of induced acetylation by ITSA1; format: cell-based, human; settings: ITSA1 50 μM, A549 cells
Method: A549 cells were seeded at a density of 4,000 cells/50 μl in DMEM+ in white tissue culture-treated 384-well plates (Nalge Nunc) using a Multidrop 384 liquid dispenser (Labsystems). Library small molecules were pinned twice (100-150 nl/pin) from ˜1 mM stock solutions (DMSO) and incubated for 18 hours. For the ITSA1+AcTubulin assay, ITSA1 (50 μM) was added four hours after pin-transfer of library molecules. Media was aspirated with a 16-channel wand. […] Plates were read on an Analyst plate reader (LJL Biosystems) with an integration time of 0.1 seconds.
Bromodeoxyuridine labeling and fluorescence-activated cell sorting (FACS) were performed as described (K. M. Koeller et al., Chemistry & Biology, 10 (5) (2003) pp. 397-410). […]

## [O-][n+]1ccccc1SC[C@@H](O)[C@@H](c1ccccc1)[C@@H](O)c1ccc(CO)cc1 (racemic) [compound 13, (±)-(1R,2S,3S)-1-[4-(hydroxymethyl)phenyl]-4-[(1-oxido-2-pyridinyl)thio]-2-phenyl-1,3-butanediol]
[1]
  developmental phenotype of zebrafish embryos: causes a wavy notochord phenotype; also recorded: developed folds in the anterior trunk region of the notochord

## O=C(c1ccc(Cl)cc1Cl)n1nnc2ccccc21 [ITSA1, reference compound]
[2]
  polymerization of microtubules after removal of nocodazole: neither tubacin nor ITSA1 (50 μM; 30 minutes) prevents the repolymerization of microtubules; also recorded: neither tubacin nor ITSA1 prevented the polymerization of microtubules
[3]
  suppression by ITSA1, stated as known: suppresses (reduces) the ability of TSA to increase acetylation levels of both α-tubulin and histones

## Nc1ccccc1NC(=O)CCCCCC(=O)Nc1cccc([C@@H]2O[C@H](CN3CCN(Cc4ccccc4)CC3)C[C@H](c3ccc(CO)cc3)O2)c1 [histacin]
[4]
  effect on tubulin deacetylation / α-tubulin acetylation in cells: without affecting α-tubulin acetylation levels
[4]; listed as 410 F1
  effect on tubulin deacetylation / α-tubulin acetylation in cells: no effect on α-tubulin acetylation
[5]
  effect on histone deacetylation / lysine or histone acetylation in cells: increased acetylated histone levels
[5]; listed as 410 F1
  effect on histone deacetylation / lysine or histone acetylation in cells: strongly increased lysine acetylation
[6]
  suppression of the induced acetylation by ITSA1: cannot be suppressed by ITSA1
